This passage reports IC50 results from patent publication US20100063077A1, “PYRIMIDINE DERIVATIVES FOR THE TREATMENT OF AMYLOID-RELATED DISEASES” (SENEXIS LIMITED, priority 2006, published 2010).

The test system of one experiment is SH SY5Y cells. The experiment in a line: Cell viability assay for amyloid toxicity using MTT reduction. The experiment is classed as cell-based. The conditions noted are these: 10 μM Aβ(1-42), 24 h incubation, read-out: IC50, protecting SH SY5Y cells from a toxic insult of Aβ(1-42) (MTT reduction as measure of cell viability). The method, then:
Aβ(1-42) was prepared for amyloid aggregation and toxicity assays by dissolving Aβ(1-42) HCl salt in hexafluoroisopropanol (HFIP), with brief sonication and vortexing. This solution of the Aβ(1-42) peptide in HIT was stored at 4° C.@2 mM. When required, an aliquot of this stock solution was freeze-dried and dissolved in DMSO to 200 times the required final assay concentration (e.g. 2 mM for a final assay concentration of 10 μM).
A 20 mM stock solution of each test compound was prepared in DMSO, and aliquots of these solutions were used to prepare further stock solutions of each test compound in DMSO, ranging in concentration from 3 μM up to 10 mM. These stock solutions were prepared for use as and when required and stored at −20° C. (maximum of 3 freeze-thaw cycles). The 20 mM parent stock solutions were stored frozen at −20° C.
The activity of compounds in protecting SH SY5Y cells from a toxic insult of 10 μM Aβ(1-42) was assessed by using inhibition of MTT reduction as a measure of cell viability. An aliquot (3 μl) of test compound [various concentrations] in DMSO is added to 294 μl of Opti-Mem (containing 2% FBS, 1% Pen/Strep, 1% L-Gln) {daughter plate}. The well is mixed thoroughly. Then an aliquot (3 μl) of Aβ(1-42) [2 mM] is added to the daughter plate wells and again mixed thoroughly. 50 μl is then aspirated and dispensed into wells containing 50 μl media+SH SY5Ycells (cells are also plated in Opti-Mein, at ˜30,000 cells/well/50 μl). Final concentrations of compound on cells range from [50 μM] to [˜15 nM] with a final concentration of Aβ(1-42) of [10 μM].
Cell plates are incubated for 24 h and then the MTT assay (Shearman, 1999). is performed. […] The plate was shaken and the absorbance was recorded at both 570 nm and 650 nm. ΔA values were calculated by subtracting absorbance at 650 nm from absorbance at 570 nm, to reduce non-specific background absorbance. ΔA values from equivalent experiments were averaged and % cell viability was determined as follows: […]
Background: Formazan colour is commonly taken as a measure of viable cells.

For the next experiment, the target named is T1, Aβ(1-42) (Homo sapiens, UniProt P05067).
T1 construct: dissolving Aβ(1-42) HCl salt in hexafluoroisopropanol (HFIP)
T1 sequence (P05067 672-713): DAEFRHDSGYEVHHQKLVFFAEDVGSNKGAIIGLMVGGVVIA
Kind of experiment: Thioflavin T fluorimetric assay of Aβ(1-42) aggregation. The experiment is classed as biochemical. The note with it: 10 μM Aβ(1-42); read-out: IC50, inhibiting Aβ(1-42) aggregation (thioflavin-T fluorimetric assay). As to the method:
Aβ(1-42) was prepared for amyloid aggregation and toxicity assays by dissolving Aβ(1-42) HCl salt in hexafluoroisopropanol (HFIP), with brief sonication and vortexing. This solution of the Aβ(1-42) peptide in HIT was stored at 4° C.@2 mM. When required, an aliquot of this stock solution was freeze-dried and dissolved in DMSO to 200 times the required final assay concentration (e.g. 2 mM for a final assay concentration of 10 μM). A 20 mM stock solution of each test compound was prepared in DMSO, and aliquots of these solutions were used to prepare further stock solutions of each test compound in DMSO, ranging in concentration from 3 μM up to 10 mM. These stock solutions were prepared for use as and when required and stored at −20° C. (maximum of 3 freeze-thaw cycles). The 20 mM parent stock solutions were stored frozen at −20° C. The daughter plate is sealed with silver seal and incubated at 37° C. for 24 and 48 hours for the Thioflavin T assay (LeVine and Scholten 1999). The activity of compounds in inhibiting 10 μM Aβ(1-42) aggregation was assessed by using a thioflavin-T fluorimetric assay. At each timepoint, a 50 or 100 μl aliquot is taken from each well of the daughter plate and dispensed into a black 96 well plate. Equal volume (50 or 100 μl) Thioflavin T [40 μM] (in Glycine buffer [50 mM] —NaOH pH 8.5) is added to each well. The plate was shaken and fluorescence was recorded using the top reader setting (10×1 msec), using excitation and emission filters of 440 (±15) and 485 (±10) nm, respectively. Fluorescence readings from equivalent experiments were averaged and % amyloid formation was determined as follows: [formula] Activity of compounds in inhibiting 10 μM Aβ(1-42) aggregation using thioflavin-T fluorimetric assay

Read-outs that look alike come from different tables or passages of the source.

As to `Oc1cccc(Nc2ccc(Nc3cccc(O)c3)nn2)c1` [RS-0406, reference compound], the IC50 in the experiment with SH SY5Y cells stood at 40 µM. For `Oc1cccc(Nc2ncc(Nc3cccc(C(F)(F)F)c3)cn2)c1` [Example 4, 2-(3-Hydroxyphenylamino)-5-[3-(trifluoromethyl)phenylamino]-pyrimidine], the IC50 on Aβ(1-42) was found to be 13 µM.

Consider `CN(c1ccccc1)c1cnc(Nc2cccc(O)c2)nc1` [Example 11, 2-(3-Hydroxyphenylamino)-5-[phenyl(methyl)amino]pyrimidine], for which the IC50 at Aβ(1-42) is 22 µM; in the experiment with SH SY5Y cells (Homo sapiens, SH-SY5Y), 30 µM. In the same order, the values of `Oc1cccc(Nc2cnc(Nc3cccc(O)c3)nc2)c1` [Example 2, 2,5-Bis-(3-hydroxyphenylamino)pyrimidine] are 32 µM and 14 µM.

Turning to `COc1cccc(Nc2cnc(Nc3ccc(Cl)c(Cl)c3)nc2)c1` [Example 10, 2-(3,4-Dichlorophenylamino)-5-(3-methoxyphenylamino)-pyrimidine], on Aβ(1-42), the IC50 worked out at 8.5 µM. Turning to `Oc1cccc(Nc2cnc(Nc3cccc(C(F)(F)F)c3)nc2)c1` [Example 8, 2-(3-Trifluoromethylphenylamino)-5-(3-hydroxyphenylamino)-pyrimidine], the IC50 on Aβ(1-42) is 5 µM.

What is called IC50 is the concentration at which inhibition is half-maximal.
